pKd: −log10 of the molar value. Activity calls are given as the source filed them. The rule behind the calls is not given here.
Assays:
[1] = Antiplatelet activity against ADP-induced C57BL/6J mouse platelet aggregation assessed as maximal aggregration rate at 10 uM preincubated for 10 mins followed by ADP addition relative to control; format: functional
Platelet [2] = assay: Inhibition of ADP-induced Akt activation in C57BL/6J mouse platelet assessed as reduction of AKT phosphorylation at Ser473 by western blot analysis; format: cell-based
Mus musculus [3] = assay: Antiplatelet activity against ADP-induced C57BL/6J mouse platelet aggregation assessed as reduction in P-selectin surface levels at 100 mg/kg, po measured after 2 weeks by flow cytometry analysis; format: functional, organism-based
Mus musculus [4] = assay: Antiplatelet activity against ADP-induced C57BL/6J mouse platelet aggregation assessed as reduction in integrin alphaIIbbeta3 surface level at 100 mg/kg, po measured after 2 weeks by flow cytometry analysis; format: functional, organism-based
Platelet [5] = assay: Inhibition of ADP-induced Akt activation in C57BL/6J mouse platelets assessed as reduction in phosphorylation Akt level at Ser473 at 100 mg/kg, po measured after 2 weeks by western blot analysis; format: organism-based
Mus musculus [6] = assay: Antithrombotic activity in BALB/c mouse model of carrageenan-induced thrombus formation assessed as inhibition of thrombosis rate in tail at 100 mg/kg, iv measured after 14 days; format: functional, organism-based; conditions: time 14.0 day
Mus musculus [7] = assay: Antiplatelet activity against ADP-induced C57BL/6J mouse platelet aggregation assessed as inhibition of platelet aggregation at 100 mg/kg, po measured after 2 weeks; format: functional, organism-based
Lung [8] = assay: Antithrombotic activity in BALB/c mouse model of carrageenan-induced thrombus formation assessed as reduced thrombus formation in lung at 100 mg/kg, iv measured after 14 days by H and E staining based assay; format: functional, organism-based; conditions: time 14.0 day
Mus musculus [9] = assay: Antithrombotic activity in BALB/c mouse model of carrageenan-induced thrombus formation assessed as reduced serum P-selectin level at 100 mg/kg, iv measured after 14 days by ELISA; format: functional, organism-based; conditions: time 14.0 day
Platelet [10] = assay: Inhibition of ADP-induced Akt activation in C57BL/6J mouse platelet assessed as reduction of AKT phosphorylation at Ser473 at 0.5 to 20 uM by western blot analysis; format: cell-based; conditions: dose 0.5-20 µM, DDE = dose-dependent effect
[11] = Metabolic stability in human liver microsomes assessed as half life at 1 uM incubated upto 60 min in presence of NADPH by LC-MS/MS analysis; format: ADME, Microsome
[12] = Metabolic stability in Sprague-Dawley rat liver microsomes assessed as half life at 1 uM incubated upto 60 min in presence of NADPH by LC-MS/MS analysis; format: ADME, Microsome
[13] = Metabolic stability in CD-1 mouse liver microsomes assessed as half life at 1 uM incubated upto 60 min in presence of NADPH by LC-MS/MS analysis; format: ADME, Microsome
[14] = Metabolic stability in human liver microsomes assessed as microsomal intrinsic clearance at 1 uM incubated upto 60 min in presence of NADPH by LC-MS/MS analysis; format: ADME, Microsome; conditions: read-out: CLH
[15] = Metabolic stability in Sprague-Dawley rat liver microsomes assessed as microsomal intrinsic clearance at 1 uM incubated upto 60 min in presence of NADPH by LC-MS/MS analysis; format: ADME, Microsome; conditions: read-out: CLH
[16] = Metabolic stability in CD-1 mouse liver microsomes assessed as microsomal intrinsic clearance at 1 uM incubated upto 60 min in presence of NADPH by LC-MS/MS analysis; format: ADME, Microsome; conditions: read-out: CLH
[17] = Metabolic stability in human liver microsomes assessed as liver intrinsic clearance at 1 uM incubated upto 60 min in presence of NADPH by LC-MS/MS analysis; format: ADME, Microsome; conditions: 1 h
[18] = Metabolic stability in Sprague-Dawley rat liver microsomes assessed as liver intrinsic clearance at 1 uM incubated upto 60 min in presence of NADPH by LC-MS/MS analysis; format: ADME, Microsome; conditions: 1 h
[19] = Metabolic stability in CD-1 mouse liver microsomes assessed as liver intrinsic clearance at 1 uM incubated upto 60 min in presence of NADPH by LC-MS/MS analysis; format: ADME, Microsome; conditions: 1 h
[20] = Metabolic stability in human liver microsomes assessed as compound remaining at 1 uM measured after 60 mins in presence of NADPH by LC-MS/MS analysis; format: ADME, Microsome; conditions: read-out: Stability
[21] = Metabolic stability in Sprague-Dawley rat liver microsomes assessed as compound remaining at 1 uM measured after 60 mins in presence of NADPH by LC-MS/MS analysis; format: ADME, Microsome; conditions: read-out: Stability
[22] = Metabolic stability in CD-1 mouse liver microsomes assessed as compound remaining at 1 uM measured after 60 mins in presence of NADPH by LC-MS/MS analysis; format: ADME, Microsome; conditions: read-out: Stability
[23] = Cytotoxicity against human HUVEC cells assessed as cell vaibility at 100 uM by MTS assay; format: toxicity, cell-based; conditions: read-out: Activity
Platelet [24] = assay: Antiplatelet activity against ADP-induced C57BL/6J mouse platelet aggregation assessed as reduction in integrin alphaIIbbeta3 surface levels by measuring increase median fluorescence intensities at 10 uM incubated for 10 min by flow cytometry analysis; format: functional, cell-based
Platelet [25] = assay: Antiplatelet activity against ADP-induced C57BL/6J mouse platelet aggregation assessed as reduction in P-selectin surface levels by measuring increase median fluorescence intensities at 10 uM incubated for 10 min by flow cytometry analysis; format: functional, cell-based
[26] = Antiplatelet activity against ADP-induced C57BL/6J mouse platelet aggregation assessed as inhibition of platelet aggregation at 10 uM preincubated for 10 mins followed by ADP addition relative to control; format: functional; set-up: scale not given: the % may be the effect or the level left
Mus musculus [27] = assay: Antithrombotic activity in BALB/c mouse model of carrageenan-induced thrombus formation assessed as reduced thrombus area in tail at 100 mg/kg, iv measured after 14 days by H and E staining based assay; format: functional, organism-based; conditions: time 14.0 day
Platelet [28] = assay: Antiplatelet activity against ADP-induced C57BL/6J mouse platelet aggregation assessed as reduction on platelet aggregation at 2.5 to 10 uM preincubated for 10 mins followed by ADP addition; format: functional, cell-based; conditions: dose 2.5-10 µM, DDE = dose-dependent effect
[29] = Acute toxicity in po dosed Kunming mouse assessed as lethal dose measured after 14 days; format: organism-based; conditions: in vivo, time 14 day
[30] = Acute toxicity in Kunming mouse assessed as effect on glutamic oxalacetic transaminase at 250 to 1000 mg/kg, po measured after 14 days; format: organism-based; conditions: in vivo, 336 h, dose 250-1000 mg/kg, time 14 day
[31] = Acute toxicity in Kunming mouse assessed as effect on glutamic pyruvic transaminase at 250 to 1000 mg/kg, po measured after 14 days; format: organism-based; conditions: in vivo, 336 h, dose 250-1000 mg/kg, time 14 day
[32] = Acute toxicity in Kunming mouse assessed as effect on blood urea nitrogen at 250 to 1000 mg/kg, po measured after 14 days; format: organism-based; conditions: in vivo, 336 h, dose 250-1000 mg/kg, time 14 day
[33] = Acute toxicity in Kunming mouse assessed as effect on creatine at 250 to 1000 mg/kg, po measured after 14 days; format: organism-based; conditions: in vivo, 336 h, dose 250-1000 mg/kg, time 14 day
[34] = Binding affinity to sensorchip-immobilized PI3K (unknown origin) by surface plasmon resonance analysis; set-up: species or system Homo sapiens
Platelet [35] = assay: Antiplatelet activity against ADP-induced C57BL/6J mouse platelet aggregation assessed as increase in VASP phosphorylation level at 0.5 to 20 uM by western blotting analysis; format: functional, cell-based; conditions: dose 0.5-20 µM
Mus musculus [36] = assay: Antiplatelet activity against ADP-induced C57BL/6J mouse platelet aggregation assessed as reduction in integrin alphaIIbbeta3 surface level at 20 mg/kg, po measured after 2 weeks by flow cytometry analysis; format: functional, organism-based
Mus musculus [37] = assay: Antiplatelet activity against ADP-induced C57BL/6J mouse platelet aggregation assessed as reduction in P-selectin surface levels at 20 mg/kg, po measured after 2 weeks by flow cytometry analysis; format: functional, organism-based
Platelet [38] = assay: Inhibition of ADP-induced Akt activation in C57BL/6J mouse platelets assessed as reduction in phosphorylation Akt level at Ser473 at 20 mg/kg, po measured after 2 weeks by western blot analysis; format: organism-based
Mus musculus [39] = assay: Antiplatelet activity against ADP-induced C57BL/6J mouse platelet aggregation assessed as inhibition of platelet aggregation at 20 mg/kg, po measured after 2 weeks; format: functional, organism-based
Mus musculus [40] = assay: Antithrombotic activity in BALB/c mouse model of carrageenan-induced thrombus formation assessed as inhibition of thrombosis rate in tail at 20 mg/kg, iv measured after 14 days; format: functional, organism-based; conditions: time 14.0 day
Lung [41] = assay: Antithrombotic activity in BALB/c mouse model of carrageenan-induced thrombus formation assessed as reduced thrombus formation in lung at 20 mg/kg, iv measured after 14 days by H and E staining based assay; format: functional, organism-based; conditions: time 14.0 day
Mus musculus [42] = assay: Antithrombotic activity in BALB/c mouse model of carrageenan-induced thrombus formation assessed as reduced serum P-selectin level at 20 mg/kg, iv measured after 14 days by ELISA; format: functional, organism-based; conditions: time 14.0 day

## COc1ccc2cc3[n+](cc2c1OC)CCc1cc2c(cc1-3)OCO2 [BERBERINE]
[1]
  %max: 27.5%
Platelet [2]
  inhibition: Active
Mus musculus [3]
  Activity: Active
Mus musculus [4]
  Activity: Active
Platelet [5]
  inhibition: Active
Mus musculus [6]
  Activity: Active
Mus musculus [7]
  Activity: Active
Lung [8]
  Activity: Active
Mus musculus [9]
  Activity: Active

## CCCOc1c(OC)ccc2cc3[n+](cc12)CCc1cc(OC)c(OC)cc1-3.[Br-]
Platelet [10]
  inhibition: Dde
[1]
  %max: 26.9%
[11]
  half-life at 1 µM: > 2.42 h
[12]
  half-life at 1 µM: > 2.42 h
[13]
  half-life at 1 µM: 0.745 h
[14]
  microsomal CLint at 1 µM: < 9.6 µL/min/mg
[15]
  microsomal CLint at 1 µM: < 9.6 µL/min/mg
[16]
  microsomal CLint at 1 µM: 31 µL/min/mg
[17]
  CLH: < 8.6 mL/min/kg
[18]
  CLH: < 17.3 mL/min/kg
[19]
  CLH: 123 mL/min/kg
[20]
  remaining at 1 h, 1 µM: 117%
[21]
  remaining at 1 h, 1 µM: 79%
[22]
  remaining at 1 h, 1 µM: 39%
[23]
  viability at 100 µM: 90%
Platelet [24]
  Activity: Active
Platelet [25]
  Activity: Active
Platelet [2]
  inhibition: Active
Mus musculus [3]
  Activity: Active
Mus musculus [4]
  Activity: Active
Platelet [5]
  inhibition: Active
Mus musculus [6]
  inhibition: Active
[26]
  Activity: 37.8%
Mus musculus [27]
  inhibition: Active
Platelet [28]
  Activity: Dde
[29]
  LD50 at 336 h: 1000 mg/kg
[30]
  Activity: Non-Toxic
[31]
  Activity: Non-Toxic
[32]
  Activity: Non-Toxic
[33]
  Activity: Non-Toxic
Mus musculus [7]
  Activity: Active
Lung [8]
  Activity: Active
Mus musculus [9]
  Activity: Active
[34]
  pKd: 4.59
Platelet [35]
  Activity: Active

## COc1cccc(COc2c(OC)ccc3cc4[n+](cc23)CCc2cc(OC)c(OC)cc2-4)c1.[Br-]
[1]
  %max: 34.8%
[23]
  viability at 100 µM: 90%

## COc1cc2c(cc1OC)-c1cc3ccc(OC)c(NCc4ccc(Cl)cc4)c3c[n+]1CC2.[Cl-]
[1]
  %max: 31.6%
Platelet [24]
  Activity: Active
Platelet [25]
  Activity: Active
Platelet [2]
  inhibition: Active
Platelet [28]
  Activity: Dde

## COc1cc2c(cc1OC)-c1cc3ccc(OC)c(OCC4CC4)c3c[n+]1CC2.[Br-]
[1]
  %max: 30.4%
[23]
  viability at 100 µM: 90%
Platelet [24]
  Activity: Active
Platelet [25]
  Activity: Active
Platelet [2]
  inhibition: Active
Platelet [28]
  Activity: Dde

## COc1cc2c(cc1OC)-c1cc3ccc(OC)c(OCc4ccccc4C#N)c3c[n+]1CC2.[Br-]
[1]
  %max: 30.5%
[23]
  viability at 100 µM: < 60%
Platelet [24]
  Activity: Active
Platelet [25]
  Activity: Active
Platelet [2]
  inhibition: Active
Platelet [28]
  Activity: Dde

## CC(=O)Oc1ccccc1C(=O)O [ASPIRIN]
Mus musculus [36]
  Activity: Active
[1]
  %max: 26.4%
Platelet [2]
  inhibition: Active
Mus musculus [37]
  Activity: Active
Platelet [38]
  inhibition: Active
Mus musculus [39]
  Activity: Active
Mus musculus [40]
  Activity: Active
Lung [41]
  Activity: Active
Mus musculus [42]
  Activity: Active
